Laboratory results published in patent publication US8097650B2, “Method of treating a condition associated with phosphorylation of TASK-1” (The Trustees of Columbia University In The City of New York, priority 2005, dated 2012).

Test system: murine TASK-1 T381A mutant
Assay: T381A mutant TASK-1 current in CHO cells
Format: cell-based, mouse
Settings: +30 mV, C-PAF 185 nM
Experimental: pCMV-TASK1 (cTBAK) consists of a 1.9 kb sequence of murine TASK-1 inserted in pcDNA3.1 (a kind gift of Dr. Yoshihisa Kurachi, University of Osaka, Japan) and has been previously described (Leonoudakis D et al. (1998) J Neurosci 18: 868-877). pEGFP-C1 and pIRES-EGFP were purchased from Clontech. pTIE (TASK1-IRES-EGFP) was constructed by inserting a 1.9 kb EcoR1 fragment from pCMV-TASK1 into EcoR1 digested pIRES-EGFP. Site-directed mutagenesis was performed on pTIE using the Quik-Change kit (Stratagene) following the manufacturer's instructions. […]
Cells were either co-transfected with pCMV-TASK1 together with pEGFP-C1 (1 μg total, 3:1) or transfected with […] or T381A-pTIE (1 μg). 48 h after the transfection the cells were checked under the microscope for green fluorescence. […]
The myocyte suspension or the coverslip with CHO cells was placed into a perfusion chamber, mounted on the stage of an inverted microscope. […] Membrane potential and current were measured in the whole cell configuration using borosilicate glass pipettes with a tip resistance between […] and filled with a pipette solution containing (mM): aspartic acid, 130; KOH, 146; NaCl, 10; CaCl2, 2; EGTA, 5; HEPES, 10; MGATP, 2; pH 7.2. […] Myocytes treated with the peptides were monitored continuously beginning immediately after rupture to detect the occurrence of any arrhythmias during dialysis of the peptide. […]

CCCCCCCCCCCCCCCCOC[C@H](COP(=O)([O-])OCC[N+](C)(C)C)OC(=O)NC [C-PAF, carbamyl-platelet-activating factor]
maximal current in the presence of C-PAF: 44.2±7 pA/pF
